These results are taken from ChEMBL document CHEMBL4706702 (Bioorg Med Chem, 2021).

Active and inactive are the calls of the source. The rule behind the calls is not given here.

Series [1] has as its target T1, Mushroom tyrosinase (Agaricus bisporus, UniProt O42713+Q00024+C7FF04+C7FF05). In words: Inhibition of mushroom tyrosinase using L-DOPA as substrate preincubated for 20 mins followed by substrate addition and measured after 10 mins.
The target in series [2] is T2, Mushroom tyrosinase (Agaricus bisporus) (UniProt O42713+Q00024+C7FF04+C7FF05). In words: Inhibition of mushroom tyrosinase using L-DOPA as substrate at 0.5 uM preincubated for 20 mins followed by substrate addition and measured after 10 mins relative to control. Particulars: time 30.0 min.
Series [3] has as its target T2, Mushroom tyrosinase (Agaricus bisporus). In words: Inhibition of mushroom tyrosinase using L-DOPA as substrate at 10 uM preincubated for 20 mins followed by substrate addition and measured after 10 mins relative to control. The settings on record: time 30.0 min.
The nature of series [4]: Antioxidant activity assessed as inhibition of DPPH radical activity at 100 uM incubated for 20 mins by spectrophotometric method relative to control. In kind it is functional.
Series [5] has as its system O=c1cc(CSc2nc3ccccc3c(=O)n2Cc2ccccn2)occ1O. In words: Uncompetitive inhibition of mushroom tyrosinase assessed as Km at 0.5 uM using L-DOPA as substrate preincubated for 10 mins followed by substrate addition and measured after 10 mins by Lineweaver-Burk plot analysis (reference value: […] uM). The settings on record: Agaricus bisporus, time 20.0 min.
For series [6] the test system is unchanged. Nature of the series: Uncompetitive inhibition of mushroom tyrosinase assessed as Km at 10 uM using L-DOPA as substrate preincubated for 10 mins followed by substrate addition and measured after 10 mins by Lineweaver-Burk plot analysis (reference value: […] uM). Particulars: Agaricus bisporus, time 20.0 min.
For series [7] the test system is unchanged. Nature of the series: Uncompetitive inhibition of mushroom tyrosinase assessed as Vmax at 2.5 uM using L-DOPA as substrate preincubated for 10 mins followed by substrate addition and measured after 10 mins by Lineweaver-Burk plot analysis (reference value: […] OD/min). The settings on record: Agaricus bisporus, time 20.0 min.
Series [8] shares this test system. In words: Uncompetitive inhibition of mushroom tyrosinase assessed as Km at 2.5 uM using L-DOPA as substrate preincubated for 10 mins followed by substrate addition and measured after 10 mins by Lineweaver-Burk plot analysis (reference value: […] uM). Particulars: Agaricus bisporus, time 20.0 min.
Series [9] shares this test system. In words: Uncompetitive inhibition of mushroom tyrosinase assessed as Vmax at 10 uM using L-DOPA as substrate preincubated for 10 mins followed by substrate addition and measured after 10 mins by Lineweaver-Burk plot analysis (reference value: […] OD/min). The settings on record: Agaricus bisporus, time 20.0 min.
The test system is the same in series [10]. Nature of the series: Uncompetitive inhibition of mushroom tyrosinase assessed as Vmax at 0.5 uM using L-DOPA as substrate preincubated for 10 mins followed by substrate addition and measured after 10 mins by Lineweaver-Burk plot analysis (reference value: […] OD/min). The settings on record: Agaricus bisporus, time 20.0 min.
Series [11] addresses T3, Tyrosinase (Mus musculus) (UniProt P11344).
T3 sequence (whole entry): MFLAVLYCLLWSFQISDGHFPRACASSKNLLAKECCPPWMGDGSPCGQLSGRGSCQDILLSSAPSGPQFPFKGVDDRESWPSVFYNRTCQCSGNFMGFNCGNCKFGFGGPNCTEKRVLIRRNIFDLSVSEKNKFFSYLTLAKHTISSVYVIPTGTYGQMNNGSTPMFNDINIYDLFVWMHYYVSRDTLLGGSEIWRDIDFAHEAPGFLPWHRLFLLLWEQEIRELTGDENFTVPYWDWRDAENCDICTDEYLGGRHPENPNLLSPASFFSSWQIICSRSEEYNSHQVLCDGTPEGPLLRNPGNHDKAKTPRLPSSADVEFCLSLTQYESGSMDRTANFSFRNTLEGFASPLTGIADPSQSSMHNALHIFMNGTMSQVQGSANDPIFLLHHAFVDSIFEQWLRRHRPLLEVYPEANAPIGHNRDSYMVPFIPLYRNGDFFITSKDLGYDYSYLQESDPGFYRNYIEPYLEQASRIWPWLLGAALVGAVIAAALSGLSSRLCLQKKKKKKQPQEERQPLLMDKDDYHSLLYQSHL
In words: Inhibition of tyrosinase in mouse B16F10 cells assessed melanin level at 8 uM after 24 hrs relative to control. The settings on record: B16-F10. More on the design: scale not given: the % may be the effect or the level left. In kind it is cell-based.

The target in series [12] is T3, Tyrosinase (Mus musculus). In words: Inhibition of tyrosinase in mouse B16F10 cells assessed reduction in melanin level at 2 uM after 24 hrs. Particulars: B16-F10. The class given is cell-based.
Series [13] relates to B16-F10. Nature of the series: Cytotoxicity against mouse B16F10 cells assessed as reduction in cell viability at 2 to 4 uM after 48 hrs by MTT assay. In kind it is cell-based. The settings on record: b16-f10, 48 h, dose 2-4 µM.
Series [14] relates to B16-F10. Nature of the series: Cytotoxicity against mouse B16F10 cells assessed as reduction in cell viability at 8 uM after 48 hrs by MTT assay. Particulars: b16-f10, 48 h. In kind it is cell-based.
Series [15] has as its target T2, Mushroom tyrosinase (Agaricus bisporus). In words: Potency index, ratio of kojic acid IC50 to test compound IC50 for inhibition of mushroom tyrosinase using L-DOPA as substrate.
Series [16] concerns the target T1, Mushroom tyrosinase. In words: Inhibition of mushroom tyrosinase using L-DOPA as substrate preincubated for 10 mins followed by substrate addition and measured after 20 mins.

Chain of Mushroom tyrosinase (Agaricus bisporus) (from UniProt O42713+Q00024+C7FF04+C7FF05) (C7FF05 whole entry, looked up): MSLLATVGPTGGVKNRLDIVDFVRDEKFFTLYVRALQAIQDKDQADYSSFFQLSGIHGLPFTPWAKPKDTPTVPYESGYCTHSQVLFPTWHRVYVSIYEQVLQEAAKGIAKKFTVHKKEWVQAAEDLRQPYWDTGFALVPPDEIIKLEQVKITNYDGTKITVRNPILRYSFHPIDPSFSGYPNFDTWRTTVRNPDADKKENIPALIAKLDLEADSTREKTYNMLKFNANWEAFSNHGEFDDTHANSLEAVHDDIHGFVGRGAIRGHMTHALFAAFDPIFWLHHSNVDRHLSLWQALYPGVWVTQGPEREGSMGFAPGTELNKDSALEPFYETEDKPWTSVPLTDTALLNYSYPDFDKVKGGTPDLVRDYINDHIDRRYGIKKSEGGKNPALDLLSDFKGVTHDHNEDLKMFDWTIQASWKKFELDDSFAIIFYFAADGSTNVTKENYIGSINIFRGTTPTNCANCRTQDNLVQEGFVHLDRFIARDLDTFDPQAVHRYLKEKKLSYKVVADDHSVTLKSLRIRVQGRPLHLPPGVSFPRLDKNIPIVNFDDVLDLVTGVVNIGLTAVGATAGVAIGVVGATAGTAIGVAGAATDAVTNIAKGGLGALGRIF
Chain of Mushroom tyrosinase (Agaricus bisporus) (from UniProt O42713+Q00024+C7FF04+C7FF05) (C7FF04 whole entry, looked up): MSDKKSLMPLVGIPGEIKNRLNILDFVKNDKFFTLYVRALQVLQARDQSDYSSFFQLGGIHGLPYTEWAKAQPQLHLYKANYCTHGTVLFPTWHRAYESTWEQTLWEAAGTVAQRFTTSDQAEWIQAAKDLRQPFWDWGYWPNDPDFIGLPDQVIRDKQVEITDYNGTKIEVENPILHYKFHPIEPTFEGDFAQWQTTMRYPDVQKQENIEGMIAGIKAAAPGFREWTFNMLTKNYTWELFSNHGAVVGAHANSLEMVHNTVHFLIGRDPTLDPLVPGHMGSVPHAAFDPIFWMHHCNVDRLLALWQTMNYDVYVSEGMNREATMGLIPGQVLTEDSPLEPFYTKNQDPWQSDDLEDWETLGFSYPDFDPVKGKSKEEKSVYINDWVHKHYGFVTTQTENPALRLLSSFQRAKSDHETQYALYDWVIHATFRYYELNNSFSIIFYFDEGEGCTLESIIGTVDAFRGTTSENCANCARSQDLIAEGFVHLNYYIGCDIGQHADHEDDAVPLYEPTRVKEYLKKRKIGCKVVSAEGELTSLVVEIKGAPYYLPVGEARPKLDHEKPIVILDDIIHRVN
Chain of Mushroom tyrosinase (Agaricus bisporus) (from UniProt O42713+Q00024+C7FF04+C7FF05) (Q00024 whole entry, looked up): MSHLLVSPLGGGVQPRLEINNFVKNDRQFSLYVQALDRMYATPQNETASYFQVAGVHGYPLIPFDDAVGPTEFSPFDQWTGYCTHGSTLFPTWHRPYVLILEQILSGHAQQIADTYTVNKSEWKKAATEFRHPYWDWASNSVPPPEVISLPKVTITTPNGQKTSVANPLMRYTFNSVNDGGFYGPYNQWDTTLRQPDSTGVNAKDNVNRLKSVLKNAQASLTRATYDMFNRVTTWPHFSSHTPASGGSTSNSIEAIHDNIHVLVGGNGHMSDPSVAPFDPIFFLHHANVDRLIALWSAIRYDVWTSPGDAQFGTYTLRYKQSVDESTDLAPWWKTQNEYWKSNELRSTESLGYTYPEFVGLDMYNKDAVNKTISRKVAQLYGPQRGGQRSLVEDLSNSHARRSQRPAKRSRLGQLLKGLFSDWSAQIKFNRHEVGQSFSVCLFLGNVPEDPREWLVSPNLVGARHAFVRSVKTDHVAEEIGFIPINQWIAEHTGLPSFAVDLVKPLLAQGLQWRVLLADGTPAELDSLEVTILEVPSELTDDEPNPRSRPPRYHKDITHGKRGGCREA
Chain of Mushroom tyrosinase (Agaricus bisporus) (from UniProt O42713+Q00024+C7FF04+C7FF05) (O42713 whole entry, looked up): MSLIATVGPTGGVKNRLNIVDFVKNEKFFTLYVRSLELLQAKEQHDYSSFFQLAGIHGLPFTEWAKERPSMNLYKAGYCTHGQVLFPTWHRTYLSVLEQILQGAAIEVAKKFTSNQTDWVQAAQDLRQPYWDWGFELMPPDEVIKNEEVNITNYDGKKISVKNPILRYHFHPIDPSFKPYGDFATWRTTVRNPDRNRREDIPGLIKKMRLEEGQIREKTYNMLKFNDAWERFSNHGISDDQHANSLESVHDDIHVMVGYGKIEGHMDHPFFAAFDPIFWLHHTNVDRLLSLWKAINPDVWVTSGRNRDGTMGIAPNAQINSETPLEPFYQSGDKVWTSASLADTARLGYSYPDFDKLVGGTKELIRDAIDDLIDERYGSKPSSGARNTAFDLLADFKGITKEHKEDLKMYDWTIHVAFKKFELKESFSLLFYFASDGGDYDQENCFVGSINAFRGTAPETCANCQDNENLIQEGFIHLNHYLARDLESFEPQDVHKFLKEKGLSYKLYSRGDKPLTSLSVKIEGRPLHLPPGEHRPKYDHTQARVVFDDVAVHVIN

As for `O=c1cc(CSc2nc3ccccc3c(=O)n2Cc2ccncc2)occ1O`, the half-inhibitory concentration (IC50) on Mushroom tyrosinase [1] is 2200 nM. Further, the inhibition came to 15.9% in series [2], 88.5% in series [3] and 39% in series [4].

The compound `O=c1cc(CSc2nc3ccccc3c(=O)n2-c2ccc(Cl)cc2)occ1O` displayed an IC50 against Mushroom tyrosinase [1] of 500 nM. The inhibition in [2] was found to be 49.5%; in series [3] it was 94.2%; in series [4], 32.6%.

Consider “Mushroom tyrosinase (Agaricus bisporus) (from UniProt O42713+Q00024+C7FF04+C7FF05)”, for which the figures for the Michaelis constant (Km) in series [5], in series [6] and in series [8] were 1.68 µM, 0.92 µM and 1.15 µM, respectively. For the same compound, the results for the Vmax (optical density/minute) in [7], in series [9] and in [10] were 0.15, 0.081 and 0.27, respectively.

Consider `O=c1cc(CSc2nc3ccccc3c(=O)n2Cc2ccccn2)occ1O`, for which the Activity was 75% in series [11], “Non-Toxic” with B16-F10 [13] and “Toxic” in the series on B16-F10 [14]. Besides, the inhibition result in series [12] was “Active”. The compound also had an IC50 against Mushroom tyrosinase [1] of 460 nM. The inhibition in [2] amounted to 54.5%; in series [3] it was 90.3%; in series [4], 42.6%.

For the compound `COc1ccc(-n2c(SCc3cc(=O)c(O)co3)nc3ccccc3c2=O)cc1`, the IC50 against Mushroom tyrosinase [1] was 2400 nM. Besides, the figures for the inhibition in [2], in series [3] and in series [4] were 22.1%, 83.5% and 27.1%, respectively.

In turn, `O=c1cc(CSc2nc3ccccc3c(=O)n2-c2ccccc2)occ1O` registered an IC50 against Mushroom tyrosinase [1] of 1880 nM. Further, the inhibition in series [2] came to 43%; in series [3] it was 91.7%; in series [4] it was 31.4%.

On to `O=c1cc(CSc2nc3ccccc3c(=O)n2-c2ccccn2)occ1O`, for which the Activity was 69% in [11], “Non-Toxic” in the series with B16-F10 [13] and “Toxic” in the series on B16-F10 [14]. Besides, in series [12], the inhibition result is “Active”. This compound had an IC50 on Mushroom tyrosinase [1] of 500 nM. For the same compound, the inhibition in series [2] was found to be 50.5%; in series [3] it was 90.9%; in series [4] it was 33.8%.

With `O=c1cc(CSc2nc3ccccc3c(=O)n2Cc2ccccc2)occ1O`, the IC50 against Mushroom tyrosinase [1] turned out to be 1420 nM. Moreover, the inhibition in [2] came out at 42.5%; in series [3], 94.1%; in series [4] it was 27.9%.

Take `COc1ccc(-n2c(SCc3cc(=O)c(O)co3)nc3ccccc3c2=O)cc1OC`: the IC50 against Mushroom tyrosinase [1] is 2120 nM. Further, the inhibition in [2] turned out to be 40.1%; in [3] it was 98.8%; in [4], 24.5%.

`O=c1cc(CSc2nc3ccccc3c(=O)n2-c2ccc(Br)cc2)occ1O` came in with a half-maximal inhibitory concentration (IC50) against Mushroom tyrosinase [1] of 1480 nM. Moreover, the results for the inhibition in [2], in [3] and in series [4] were 40.1%, 71.7% and 33.3%, respectively.

At Mushroom tyrosinase [1], `CC(C)n1c(SCc2cc(=O)c(O)co2)nc2ccccc2c1=O` registered a 50% inhibitory concentration (IC50) of 1440 nM. In addition, the inhibition in series [2] worked out at 38.6%; in [3], 91.2%; in series [4], 32.6%.

Turning to `C=CCn1c(SCc2cc(=O)c(O)co2)nc2ccccc2c1=O`, the IC50 against Mushroom tyrosinase [1] was found to be 1560 nM. Also, the inhibition in [2] was determined as 32.4%; in series [3], 92%.

In the case of `O=c1cc(CSc2nc3ccccc3c(=O)n2C2CC2)occ1O`, the concentration for half-maximal inhibition (IC50) at Mushroom tyrosinase [1] worked out at 2100 nM. Besides, in series [15], the Ratio IC50 was 4. Moreover, the inhibition in series [2] came out at 23.6%; in series [3], 82.5%; in series [4], 24.5%.

In turn, `Cc1ccc(-n2c(SCc3cc(=O)c(O)co3)nc3ccccc3c2=O)cc1` showed a half-inhibitory concentration (IC50) against Mushroom tyrosinase [1] of 5320 nM. In addition, the figures for the inhibition in series [2], in series [3] and in series [4] were 11.4%, 77.3% and 33.3%, respectively.

`O=c1cc(CSc2nc3ccccc3c(=O)n2Cc2ccc(F)cc2)occ1O` displayed an IC50 against Mushroom tyrosinase [1] of 1560 nM. Further, the results for the inhibition in series [2], in series [3] and in [4] were 32.4%, 92% and 32.6%, respectively.

As to `O=C(Nn1c(-c2ccccc2O)nc2ccccc2c1=O)c1ccco1`, the IC50 against Mushroom tyrosinase [16] is 499 nM.

At Mushroom tyrosinase [16], `COc1cccc(C(=O)NN2C(=O)c3ccccc3NC2c2ccc(F)cc2)c1` (configuration not stated) registered an IC50 of 6 nM.

As to `O=c1c(O)c(-c2ccc(O)c(O)c2)oc2cc(O)cc(O)c12`, the inhibition in series [4] is 4.62%.

As for `CCCn1c(SCc2cc(=O)c(O)co2)nc2ccccc2c1=O`, at Mushroom tyrosinase [1], the IC50 stood at 2310 nM. Moreover, the inhibition in series [2] came out at 24.5%; in series [3], 90.5%; in series [4], 22.6%.
